The target of one assay is T1, 3′GT (Gentiana triflora, UniProt Q8H0F2).
T1 construct: the region from the initiation methionine to poly A of pG3′GT7 was inserted in the NcoI/KpnI site of E. coli expression vector pQE61; made in house; host or cells: Escherichia coli JM105 (vector pQE61, plasmid pG3′Q1)
T1 sequence (Q8H0F2 1-482): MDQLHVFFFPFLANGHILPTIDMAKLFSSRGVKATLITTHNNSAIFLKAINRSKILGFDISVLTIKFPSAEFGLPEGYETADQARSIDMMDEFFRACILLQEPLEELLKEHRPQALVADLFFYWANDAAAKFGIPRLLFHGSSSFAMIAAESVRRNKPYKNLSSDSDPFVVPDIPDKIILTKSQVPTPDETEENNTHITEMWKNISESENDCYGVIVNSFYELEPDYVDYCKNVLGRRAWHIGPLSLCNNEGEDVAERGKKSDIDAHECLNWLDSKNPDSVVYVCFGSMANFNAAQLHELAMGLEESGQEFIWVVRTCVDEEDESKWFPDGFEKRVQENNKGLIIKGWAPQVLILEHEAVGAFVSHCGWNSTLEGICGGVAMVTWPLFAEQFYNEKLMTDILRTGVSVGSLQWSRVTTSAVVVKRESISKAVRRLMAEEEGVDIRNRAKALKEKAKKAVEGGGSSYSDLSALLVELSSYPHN
Put plainly: Analysis of substrate specificity of purified 3′GT expressed in Escherichia coli (glucose transfer from UDP-glucose, HPLC). Type of assay: biochemical, gentian. Particulars: compound used as substrate; for relative activity: activity to delphinidin 3,5-glucoside assumed to be 100%; for 3′GT activity to substrate (qualitative): purified sample of 3′GT from E. coli. As for the experimental part:
(§1) 20 μl of the crude enzyme extract solution, 10 μl of 0.5M potassium phosphate (pH 8.5), 10 μl of 5 mM UDP-glucose, 10 μl of delphinidin 3,5-diglucoside (1.5 mg/ml) were mixed and maintained at 30° C. for 10 minutes. Then, following the procedure of Fujiwara et al. (Fujiwara et al. Plant J. (1998)), reaction was terminated, and the reaction product was analyzed using high performance liquid chromatography (HPLC). As a result, it was determined that gentian flower petals contain an enzyme having activity to transfer a glycosyl group to the 3′-position of an anthocyanin.
Using the PCR method, an NcoI site was introduced so as to coincide with the initiation methionine codon of pG3′GT7, and the region from the initiation methionine to poly A of pG3′GT7 was inserted in the NcoI/KpnI site of E. coli expression vector pQE61 (QIAGEN). The obtained E. coli expression vector was denoted by pG3′Q1. pG3′Q1 was introduced into the Escherichia coli JM105 strain, and after preculturing overnight at 37° C., a part of the precultured medium was innoculated into 8 L of a main culture medium, and was cultured at 27° C. until OD600=0.6. To induce expression of the 3′GT gene, IPTG was added so as to reach a final concentration of 0.4 mM, and was cultured overnight at 27° C. After cells were collected, washed, and suspended in 400 ml of crushing buffer (25 mM Tris-HCl (pH 7.5), 250 mM NaCl, 1 mM EDTA, 0.5% β-mercaptoethanol), the cells were disrupted by ultrasonic treatment. After centrifuging, the resultant supernatant was subjected to processing with DE52, and a 40–70% ammonium sulfate precipitate fraction was recovered. After desalting, the crude protein solution was loaded onto a DEAE-TOYOPEARL (Toso Co.) preequilibrated with buffer C (25 mM Tris-HCl (pH 7.5), 0.5% β-mercaptoethanol), and was eluted with buffer C containing 0–0.5 M NaCl. The active fraction was recovered, adsorbed to BlueA (Amicon Co.) equilibrated buffer C, and was eluted with a linear gradient formed with the buffer C and the buffer C containing 2 M NaCl. The obtained active fraction was used in the reaction, to be described later, as a purified sample of the 3′GT portion.
Using the purified sample of the 3′GT portion obtained in Example 6, the substrate-specificity of the 3′GT was analyzed. […] Assuming the relative activity to delphinidin 3,5-glucoside to be 100%, the activity to delphinidin 3-glucosyl-5-caffeoylglucoside is about 50%. Trace amount of products (1% or less) were also observed using delphinidin or delphinidin 3-diglucoside as a substrate. From retention time of HPLC and the absorption spectrum, the reaction product is considered to be a substrate having a glycosyl group added to the 3′-position thereof.

Assay [1] addresses T2, protein which has activity to transfer a glycosyl group to the 3′-position of anthocyanins (Gentiana triflora, UniProt Q8H0F2).
T2 construct: A DNA fragment of approximately 1.6 kbp, which was obtained by digestion of pG3′GT7 with XhoI, was recovered; made in house; extract after glass-bead disruption
T2 sequence (Q8H0F2 1-482): T1 sequence (Q8H0F2 1-482)
Put plainly: Enzyme activity of extract from yeast transformed with pYG3′GT7 (measured as in Example 1, HPLC). It is filed as biochemical, gentian. Particulars: compound used as substrate. How it is done:
as §1
A DNA fragment of approximately 1.6 kbp, which was obtained by digestion of pG3′GT7 with XhoI, was recovered. This DNA was ligated to a DNA fragment obtained by digesting pYE22m with SaII, and the obtained plasmid that has the initiation codon nearer to the promotor on pYE22m was denoted by pYG3′GT7. pYE22m was constructed according to the method as set forth in Japanese Patent Publication No. 4-228078. This plasmid was introduced into yeast cells to obtain transformed yeast cells. After the yeast cells were cultured and disrupted with glass beads, enzyme activity was measured as in Example 1 using delphinidin 3,5-diglucoside as substrate.
No activity was found in the yeast in which the plasmid was not introduced. When cyanidin 3,5-diglucoside was used as substrate, no new peak was produced.

For the compound “delphinidin 3-glucosyl-5-caffeoylglucoside”, on 3′GT, the relative activity entry is given as “about 50%” and the “3′GT activity to substrate (qualitative)” value was “exhibits activity”.
With `OC[C@H]1O[C@@H](Oc2cc3c(O[C@@H]4O[C@H](CO)[C@@H](O)[C@H](O)[C@H]4O)cc(O)cc3[o+]c2-c2ccc(O)c(O)c2)[C@H](O)[C@@H](O)[C@@H]1O` [cyanidin 3,5-diglucoside], in assay [1], the “activity for adding a glycosyl group to substrate (qualitative)” value is listed as “exhibits no activity”. In addition, the “3′GT activity to substrate (qualitative)” value on 3′GT was “not”.
As to `OC[C@H]1O[C@@H](Oc2cc3c(O[C@@H]4O[C@H](CO)[C@@H](O)[C@H](O)[C@H]4O)cc(O)cc3[o+]c2-c2cc(O)c(O)c(O)c2)[C@H](O)[C@@H](O)[C@@H]1O` [delphinidin 3,5-diglucoside], the “activity for adding a glycosyl group to substrate (qualitative)” value in assay [1] is on record as “exhibits activity”. At 3′GT, the relative activity worked out at 100% and the “3′GT activity to substrate (qualitative)” value is “exhibits activity”.

(Values after patent US7160700B2, “Glycosyltransferase genes” (International Flower Developments Proprietary Limited, priority 2000, dated 2007).)
